In ChEMBL document CHEMBL3286212, “Synthesis of isoquinolinone-based tricycles as novel poly(ADP-ribose) polymerase-1 (PARP-1) inhibitors” (Bioorg Med Chem Lett, 2014):
pIC50: −log10 of the molar value.

Columns and labels:
[1] = Cytotoxicity against Chinese hamster V79 cells by sulforhodamine B assay; assay type: cell-based, Cricetulus griseus
[2] = Cytotoxicity against BRCA2-deficient Chinese hamster VC8 cells by sulforhodamine B assay; assay type: functional; details: Cricetulus griseus, V-C8
[3] = Cytotoxicity against BRCA1-deficient human MDA-MB-436 cells by sulforhodamine B assay; assay type: functional
[4] = molecular target: Poly [ADP-ribose] polymerase 1 (Homo sapiens, UniProt P09874); assay: Inhibition of human recombinant PARP-1 after 1 hr by ELISA
Chain of Poly [ADP-ribose] polymerase 1 (P09874 whole entry): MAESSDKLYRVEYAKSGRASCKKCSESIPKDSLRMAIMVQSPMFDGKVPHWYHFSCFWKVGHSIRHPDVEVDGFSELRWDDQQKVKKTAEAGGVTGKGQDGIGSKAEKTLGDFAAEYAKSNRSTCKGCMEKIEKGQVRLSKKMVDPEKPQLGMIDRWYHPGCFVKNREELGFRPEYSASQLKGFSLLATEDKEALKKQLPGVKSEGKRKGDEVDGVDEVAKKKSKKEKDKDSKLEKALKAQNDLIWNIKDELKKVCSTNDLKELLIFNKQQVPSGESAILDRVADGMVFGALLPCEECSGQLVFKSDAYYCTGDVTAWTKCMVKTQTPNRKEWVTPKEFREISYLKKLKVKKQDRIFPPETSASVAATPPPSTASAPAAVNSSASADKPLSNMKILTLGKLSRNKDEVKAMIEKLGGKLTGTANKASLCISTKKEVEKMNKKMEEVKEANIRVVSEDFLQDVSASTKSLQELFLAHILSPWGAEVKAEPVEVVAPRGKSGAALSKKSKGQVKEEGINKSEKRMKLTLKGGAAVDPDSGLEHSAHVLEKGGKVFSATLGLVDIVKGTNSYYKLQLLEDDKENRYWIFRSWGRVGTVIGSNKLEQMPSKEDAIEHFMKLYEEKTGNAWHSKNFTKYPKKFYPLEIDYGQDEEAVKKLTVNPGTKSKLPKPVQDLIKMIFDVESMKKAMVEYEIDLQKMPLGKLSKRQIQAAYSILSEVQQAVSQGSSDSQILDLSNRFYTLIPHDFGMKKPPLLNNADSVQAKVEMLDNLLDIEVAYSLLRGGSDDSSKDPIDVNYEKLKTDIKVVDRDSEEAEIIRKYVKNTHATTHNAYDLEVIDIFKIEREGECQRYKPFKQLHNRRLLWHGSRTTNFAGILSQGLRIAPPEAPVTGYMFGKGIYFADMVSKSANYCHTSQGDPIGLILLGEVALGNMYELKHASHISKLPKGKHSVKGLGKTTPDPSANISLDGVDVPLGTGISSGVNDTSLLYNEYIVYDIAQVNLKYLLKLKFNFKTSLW

SMILES	CC50 [1] [nM]	CC50 [2] [nM]	CC50 [3] [nM]	pIC50 [4]
O=C(c1cc(Cc2n[nH]c(=O)c3ccccc23)ccc1F)N1CCN(C(=O)C2CC2)CC1 [OLAPARIB]	8980	468	16.9	
CN1CCCN(C(=O)c2cc3c(n2C)-c2ccccc2C(=O)NC3)CC1				5.00
CN(C)CCCNC(=O)c1cc2[nH]c(=O)c3ccccc3c2n1C				6.52
Cn1c(C(=O)N2CCN(Cc3ccccc3)CC2)cc2[nH]c(=O)c3ccccc3c21				6.07
CN1CCCN(C(=O)c2cc3[nH]c(=O)c4ccccc4c3n2C)CC1				6.70
COc1cccc(CN2CCN(C(=O)c3cc4[nH]c(=O)c5ccccc5c4n3C)CC2)c1				6.40
Cn1c(C(=O)N2CCN(Cc3ccc([N+](=O)[O-])cc3)CC2)cc2[nH]c(=O)c3ccccc3c21				< 5.00
CC(C)N1CCN(C(=O)c2cc3[nH]c(=O)c4ccccc4c3n2C)CC1				6.08
CN(C)CCNC(=O)c1cc2[nH]c(=O)c3ccccc3c2n1C				5.96
CN1CCN(C(=O)c2cc3c(n2C)-c2ccccc2C(=O)NC3)CC1				< 5.00
Cc1c(C(=O)N2CCN(C)CC2)sc2c1[nH]c(=O)c1ccccc12				6.64
Cc1c(C(=O)NCCN2CCCC2)sc2c1[nH]c(=O)c1ccccc12				6.61
Cn1c(C(=O)N2CC=C(c3ccc(F)cc3)CC2)cc2c1-c1ccccc1C(=O)NC2				5.78
CCN1CCN(C(=O)c2sc3c([nH]c(=O)c4ccccc43)c2C)CC1	> 10000	> 10000	3480	7.10
Cc1c(C(=O)N2CCN(C(C)C)CC2)sc2c1[nH]c(=O)c1ccccc12	> 10000	> 10000	> 10000	7.07
Cn1c(C(=O)N2CCCNCC2)c(Cl)c2[nH]c(=O)c3ccccc3c21				7.00
CN(C)C1CCN(C(=O)c2cc3c(n2C)-c2ccccc2C(=O)NC3)CC1				5.19
Cc1c(C(=O)NCCN2CCOCC2)sc2c1[nH]c(=O)c1ccccc12				7.08
Cc1c(C(=O)N2CCC(N(C)C)CC2)sc2c1[nH]c(=O)c1ccccc12	> 10000	> 10000	> 10000	7.54
Cn1c(C(=O)NCCCN2CCOCC2)cc2[nH]c(=O)c3ccccc3c21				7.00
CC(C)S(=O)(=O)N1CCN(C(=O)c2cc3[nH]c(=O)c4ccccc4c3n2C)CC1				6.22
Cn1c(C(=O)N2CCNCC2)cc2[nH]c(=O)c3ccccc3c21				7.36
CN1CCN(C(=O)c2cc3[nH]c(=O)c4ccccc4c3n2C)CC1				6.92
Cc1c(C(=O)NCCN2CCN(C)CC2)sc2c1[nH]c(=O)c1ccccc12				6.55
Cn1c(C(=O)N2CCCNCC2)c(Br)c2[nH]c(=O)c3ccccc3c21				7.00
Cn1c(C(=O)NCCN2CCCC2)cc2c1-c1ccccc1C(=O)NC2				5.09
Cn1c(C(=O)N2CCCNCC2)cc2[nH]c(=O)c3ccccc3c21	> 10000	> 10000	1190	7.00
Cc1c(C(=O)N2CC=C(c3ccc(F)cc3)CC2)sc2c1[nH]c(=O)c1ccccc12				6.88
